Reference: patent publication US6808904B2, “Herbicide-tolerant protox genes produced by DNA shuffling” (priority 1994, dated 2004)

Tests used:
Assay in all cases: Bacterial cross-tolerance testing of resistant mutant plasmids in SASX38, Arabidopsis protox-1 mutants
Format in all cases: cell-based
Design in all cases: key to Cross tolerance, AraC-1Val / Cross tolerance, AraC-2Cys / Cross tolerance, AraC-1Thr / Cross tolerance, AraC-3Thr / Cross tolerance, AraC-2Ile / Cross tolerance, AraC-2Cys + AraC425Ser: + = 10× or more tolerant than WT; ++ = 100× or more tolerant than WT; − = no cross tolerance
[1] = target: T1, plant protox mutants (Arabidopsis protox-1) in SASX38 (Arabidopsis thaliana, UniProt P55826, A220L/T56K/Y426L); conditions: mutant AraC-1Leu + AraC-2Leu
T1 construct: contains only 17 amino acids of the putative chloroplast transit peptide; expressed in transfected cells; host or cells: E. coli SASX38 (hemG mutant)
T1 sequence (P55826 41-537 T56K/A220L/Y426L): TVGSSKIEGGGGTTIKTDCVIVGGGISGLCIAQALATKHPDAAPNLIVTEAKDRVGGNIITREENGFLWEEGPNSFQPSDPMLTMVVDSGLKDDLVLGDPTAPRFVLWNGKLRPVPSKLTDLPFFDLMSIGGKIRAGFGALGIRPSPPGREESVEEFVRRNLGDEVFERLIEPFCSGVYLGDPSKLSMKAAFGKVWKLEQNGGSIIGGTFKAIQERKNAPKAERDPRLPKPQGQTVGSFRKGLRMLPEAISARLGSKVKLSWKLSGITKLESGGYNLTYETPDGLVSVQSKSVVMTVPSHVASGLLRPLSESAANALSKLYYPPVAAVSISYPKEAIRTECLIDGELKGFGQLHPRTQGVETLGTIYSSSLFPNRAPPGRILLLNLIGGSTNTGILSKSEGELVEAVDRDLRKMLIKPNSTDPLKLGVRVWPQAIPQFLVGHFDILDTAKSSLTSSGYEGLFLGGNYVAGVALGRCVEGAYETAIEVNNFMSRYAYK
Experimental: (§1) Resistant mutant plasmids, originally identified based on resistance against a single protox inhibitory herbicide, were tested against a spectrum of other protox inhibiting compounds. For this test, the SASX38 strain containing the wild-type plasmid is plated on a range of concentrations of each compound to determine the lethal concentration for each one. Resistant mutant plasmids in SASX38 are plated and scored for the ability to survive on a concentration of each compound at least 10 fold higher than the concentration that is lethal to the SASX38 strain containing the wild-type plasmid.

[2] = target: T2, plant protox mutants (Arabidopsis protox-1) in SASX38 (Arabidopsis thaliana, UniProt P55826, A220L/T56K/Y426M); conditions: mutant AraC-1Leu + AraC-2Met
T2 construct: contains only 17 amino acids of the putative chloroplast transit peptide; expressed in transfected cells; host or cells: E. coli SASX38 (hemG mutant)
T2 sequence (P55826 41-537 T56K/A220L/Y426M): as the sequence (P55826 41-537 T56K/A220L/Y426L) above, with L386M counted along it
Experimental: as §1

[3] = target: T3, plant protox mutants (Arabidopsis protox-1) in SASX38 (Arabidopsis thaliana, UniProt P55826, A220T/T56K); conditions: mutant AraC-1Thr vs WT plasmid in SASX38
T3 construct: contains only 17 amino acids of the putative chloroplast transit peptide; expressed in transfected cells; host or cells: E. coli SASX38 (hemG mutant)
T3 sequence (P55826 41-537 T56K/A220T): as the sequence (P55826 41-537 T56K/A220L/Y426L) above, with L180T, L386Y counted along it
Experimental: as §1

[4] = target: T4, plant protox mutants (Arabidopsis protox-1) in SASX38 (Arabidopsis thaliana, UniProt P55826, A220V/T56K); conditions: mutant AraC-1Val vs WT plasmid in SASX38
T4 construct: contains only 17 amino acids of the putative chloroplast transit peptide; expressed in transfected cells; host or cells: E. coli SASX38 (hemG mutant)
T4 sequence (P55826 41-537 T56K/A220V): as the sequence (P55826 41-537 T56K/A220L/Y426L) above, with L180V, L386Y counted along it
Experimental: as §1

[5] = target: T5, plant protox mutants (Arabidopsis protox-1) in SASX38 (Arabidopsis thaliana, UniProt P55826, N425S/T56K/Y426L); conditions: mutant AraC-2Leu + AraC425Ser
T5 construct: contains only 17 amino acids of the putative chloroplast transit peptide; expressed in transfected cells; host or cells: E. coli SASX38 (hemG mutant)
T5 sequence (P55826 41-537 T56K/N425S/Y426L): as the sequence (P55826 41-537 T56K/A220L/Y426L) above, with L180A, N385S counted along it
Experimental: as §1

[6] = target: T6, plant protox mutants (Arabidopsis protox-1) in SASX38 (Arabidopsis thaliana, UniProt P55826, T56K/Y426C); conditions: mutant AraC-2Cys vs WT plasmid in SASX38
T6 construct: contains only 17 amino acids of the putative chloroplast transit peptide; expressed in transfected cells; host or cells: E. coli SASX38 (hemG mutant)
T6 sequence (P55826 41-537 T56K/Y426C): as the sequence (P55826 41-537 T56K/A220L/Y426L) above, with L180A, L386C counted along it
Experimental: as §1

[7] = target: T7, plant protox mutants (Arabidopsis protox-1) in SASX38 (Arabidopsis thaliana, UniProt P55826, T56K/Y426I); conditions: mutant AraC-2Ile
T7 construct: contains only 17 amino acids of the putative chloroplast transit peptide; expressed in transfected cells; host or cells: E. coli SASX38 (hemG mutant)
T7 sequence (P55826 41-537 T56K/Y426I): as the sequence (P55826 41-537 T56K/A220L/Y426L) above, with L180A, L386I counted along it
Experimental: as §1

[8] = test system: plant protox mutants (Arabidopsis protox-1) in SASX38; conditions: mutant AraC-3Thr vs WT plasmid in SASX38
Experimental: as §1

Row | SMILES | Cross tolerance, AraC-1Leu + AraC-2Leu [1] | Cross tolerance, AraC-1Leu + AraC-2Met [2] | Cross tolerance, AraC-1Thr [3] | Cross tolerance, AraC-1Val [4] | Cross tolerance, AraC-2Leu + AraC425Ser [5] | Cross tolerance, AraC-2Cys [6] | Cross tolerance, AraC-2Ile [7] | Cross tolerance, AraC-3Thr [8]
1 | COC(=O)CSc1cc(N=c2sc(=O)n3n2CCCC3)c(F)cc1Cl [VIIa] | ++ (++ = 100× or more tolerant than WT) | ++ (++ = 100× or more tolerant than WT) | + (+ = 10× or more tolerant than WT) | + (+ = 10× or more tolerant than WT) | ++ (++ = 100× or more tolerant than WT) | + (+ = 10× or more tolerant than WT) | ++ (++ = 100× or more tolerant than WT) | −
2 | CCCCCOC(=O)COc1cc(N2C(=O)C3=C(CCCC3)C2=O)c(F)cc1Cl [XIV] | ++ (++ = 100× or more tolerant than WT) | ++ (++ = 100× or more tolerant than WT) | + (+ = 10× or more tolerant than WT) | + (+ = 10× or more tolerant than WT) | ++ (++ = 100× or more tolerant than WT) | − | ++ (++ = 100× or more tolerant than WT) | + (+ = 10× or more tolerant than WT)
3 | CCOC(=O)COC(=O)c1cc(Oc2ccc(C(F)(F)F)cc2Cl)ccc1[N+](=O)[O-] [IV] | ++ (++ = 100× or more tolerant than WT) | + (+ = 10× or more tolerant than WT) | ++ (++ = 100× or more tolerant than WT) | ++ (++ = 100× or more tolerant than WT) | + (+ = 10× or more tolerant than WT) | − | − | ++ (++ = 100× or more tolerant than WT)
4 | CC(C)OC(=O)c1cc(-n2c(=O)cc(C(F)(F)F)n(C)c2=O)ccc1Cl [XI] | ++ (++ = 100× or more tolerant than WT) | ++ (++ = 100× or more tolerant than WT) | + (+ = 10× or more tolerant than WT) | − | ++ (++ = 100× or more tolerant than WT) | + (+ = 10× or more tolerant than WT) | ++ (++ = 100× or more tolerant than WT) | ++ (++ = 100× or more tolerant than WT)
